Data taken from publication PMC10895676, “Antiviral Activity of Lipophilic Nucleoside Tetraphosphate Compounds” (Journal of Medicinal Chemistry, 2024).
“Also recorded” adds a separate entry of the source.

The compounds below were run against T1, human DNA polymerase α (Homo sapiens, UniProt P09884) (assay: Primer extension assay using human DNA polymerase α). Conditions: 60 min, 2 U, 37 °C.
T1 construct: purchased Chimerx
T1 sequence (P09884 1-1462): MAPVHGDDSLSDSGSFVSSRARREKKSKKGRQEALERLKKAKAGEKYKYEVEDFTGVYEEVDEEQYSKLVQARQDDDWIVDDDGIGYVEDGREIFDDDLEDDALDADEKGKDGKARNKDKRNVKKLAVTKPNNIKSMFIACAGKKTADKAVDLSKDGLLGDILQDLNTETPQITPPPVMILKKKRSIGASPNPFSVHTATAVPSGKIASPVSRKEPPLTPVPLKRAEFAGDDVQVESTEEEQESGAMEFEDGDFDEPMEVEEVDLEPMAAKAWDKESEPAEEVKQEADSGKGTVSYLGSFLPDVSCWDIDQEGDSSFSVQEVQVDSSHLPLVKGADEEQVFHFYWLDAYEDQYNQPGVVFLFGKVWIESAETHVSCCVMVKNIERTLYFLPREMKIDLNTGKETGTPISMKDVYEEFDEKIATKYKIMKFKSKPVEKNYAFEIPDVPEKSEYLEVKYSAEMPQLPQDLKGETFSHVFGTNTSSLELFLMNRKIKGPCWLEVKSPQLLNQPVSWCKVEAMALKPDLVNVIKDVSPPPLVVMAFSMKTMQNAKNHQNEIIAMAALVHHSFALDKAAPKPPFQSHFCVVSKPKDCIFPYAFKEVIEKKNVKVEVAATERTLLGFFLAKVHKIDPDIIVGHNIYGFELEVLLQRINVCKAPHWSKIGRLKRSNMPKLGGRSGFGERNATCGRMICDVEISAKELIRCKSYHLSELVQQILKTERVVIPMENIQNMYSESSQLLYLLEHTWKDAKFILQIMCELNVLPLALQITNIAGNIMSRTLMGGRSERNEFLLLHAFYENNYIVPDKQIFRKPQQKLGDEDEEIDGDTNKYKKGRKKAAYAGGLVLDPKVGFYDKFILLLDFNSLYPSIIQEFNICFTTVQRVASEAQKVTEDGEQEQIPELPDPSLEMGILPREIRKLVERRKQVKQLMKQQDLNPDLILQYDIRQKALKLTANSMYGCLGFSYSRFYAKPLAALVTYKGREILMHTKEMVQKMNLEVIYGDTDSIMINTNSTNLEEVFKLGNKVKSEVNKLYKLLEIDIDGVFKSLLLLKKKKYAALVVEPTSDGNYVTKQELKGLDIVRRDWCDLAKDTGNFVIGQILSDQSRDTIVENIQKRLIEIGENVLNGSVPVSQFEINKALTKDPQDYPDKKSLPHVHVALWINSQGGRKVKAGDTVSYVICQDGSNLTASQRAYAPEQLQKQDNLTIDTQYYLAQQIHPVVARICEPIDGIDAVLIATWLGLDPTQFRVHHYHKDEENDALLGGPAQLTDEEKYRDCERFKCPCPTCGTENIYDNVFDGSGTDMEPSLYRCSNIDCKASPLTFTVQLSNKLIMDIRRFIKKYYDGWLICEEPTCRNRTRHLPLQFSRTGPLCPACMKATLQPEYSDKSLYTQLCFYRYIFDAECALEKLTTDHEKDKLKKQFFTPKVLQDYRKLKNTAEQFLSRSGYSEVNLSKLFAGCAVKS
Assay type: biochemical
Excerpt: Encouraged by the previously obtained results that γ-phosphate-modified-d4TDPs 3, γ-monoalkylated d4TTP derivatives as well as d4TDP were accepted as substrates by HIV-RT,[49],[50],[55],[59]−[61] δ-dialkylated d4T tetraphosphate analogues 4,5, δ-monoalkylated d4T tetraphosphate analogues 20 and 24 and d4T4P were investigated in primer extension assays in the presence of HIV-RT or the three different human DNA polymerases α, β and γ. D4TTP (for the compounds 4–9) and the natural thymidine triphosphate (TTP) were used as reference compounds.
Figure 6 Primer extension assay using HIV-RT (A), human polymerases α (B), β (C), and γ (D). (Figure 6A). Primer extension assay using HIV-RT (30 min, 6U). Lane 1: (+) dATP, dCTP, dGTP, and TTP with HIV-RT. Lane 2: (−) dATP, dCTP, dGTP, and TTP without HIV-RT. Lane 3: TTP. […] Lane 5: δ-(C4; C18)-d4T4P 4d. […] Lane 7: δ-(C18)-d4T4P 20. Lane 8: δ-C-(C18)-d4T4P 24. Lane 9: d4T4P. Lane 10: d4TTP. Lane 11: d4TDP. HIV-RT assay reaction conditions: 50 mM Tris–HCl (pH 8.6), 10 mM MgCl2, 40 mM KCl, 250 μM dNTPs, HIV-RT (6 U), 0.20 μM DNA hybrid, primer-template-hybrid 0.32 mM in a reaction volume of 10 μL, incubated at 37 °C for 0.5 h, 80 °C for 7 min. Primer extension assays: 50 mA, 45 w for 4 h. (Figure 6B). For human DNA polymerase α assay (60 min, 2 U): Lane 1: (+) dATP, dCTP, dGTP, and TTP with human polymerase α. Lane 2: (−) dATP, dCTP, dGTP, and TTP without human polymerase α. Lane 3: TTP. […] Lane 5: δ-(C4; C18)-d4T4P 4d. […] Lane 7: δ-(C18)-d4T4P 20. Lane 8: δ-C-(C18)-d4T4P 24. Lane 9: d4T4P. Lane 10: d4TTP. Human DNA polymerase α assay conditions: 60 mM Tris–HCl (pH 8), 5 mM Mg(OAc)2, 100 mM KCl, 1.0 mM dithiothreitol, 0.1 mM spermine, 0.01% (w/v) bovine serum albumin, 250 μM dNTPs, 2 U human polymerase α, 0.20 μM DNA hybrid, and primer-template-hybrid 0.32 mM in a reaction volume of 10 μL, incubated at 37 °C for 1 h, 80 °C for 7 min. Primer extension assays: 50 mA, 45 w for 3 h. (Figure 6C). For human DNA polymerase β assay (60 min, 2 U): Lane 1: (+) dATP, dCTP, dGTP, and TTP with human polymerase β. […]
`CCCCCCCCCCCCCCCCCCP(=O)(O)OP(=O)(O)OP(=O)(O)OP(=O)(O)OC[C@@H]1C=C[C@H](n2cc(C)c(=O)[nH]c2=O)O1` [compound 24, δ-C-(Alkyl-C18)-d4T4P] was tested, and the “substrate for human DNA polymerase α (primer extension)” value (“substrate for human DNA polymerase α” for short) was “nonsubstrates”. For `CCCCCCCCCCCCCCCCCCOP(=O)(O)OP(=O)(O)OP(=O)(O)OP(=O)(O)OC[C@@H]1C=C[C@H](n2cc(C)c(=O)[nH]c2=O)O1` [compound 20, δ-(Alkyl-C18)-d4T4P], the “substrate for human DNA polymerase α” value was “nonsubstrates”. `Cc1cn([C@H]2C=C[C@@H](COP(=O)(O)OP(=O)(O)OP(=O)(O)OP(=O)(O)O)O2)c(=O)[nH]c1=O` [d4T4P, 2′,3′-didehydro-2′,3′-dideoxythymidine-5′-tetraphosphate] was tested, and the “substrate for human DNA polymerase α” value was “nonsubstrates; also recorded: not a substrate”.
